According to patent US20260206809A1, “NATURAL SWEETENER COMPOSITIONS CONTAINING ALKYL LACTATES AND USES THEREOF” (Firmenich SA, priority 2022, published 2026):

Assay: Solubility limit of the natural sweetener in pure solvents (estimated)
Format: physicochemical
Conditions: for Solubility limit in ethyl lactate: pure ethyl lactate; for Solubility limit in glycerol: pure glycerol
Description: As used herein, “solubility at 25° C.” or “solubility at RT” is meant to represent the thermodynamic, equilibrium solubility of a natural sweetener at 25° C. or at RT. […] Subsequently, even once the temperature is brought back to a lower temperature, for example to 25° C., the solid compound may remain in solution for a certain amount of time while being supersaturated. However, this is an apparent solubility due to a non-equilibrium, metastable state with limited shelf-life stability, and therefore is distinguished from thermodynamic solubility at equilibrium. Thermodynamic solubility can, for example, be determined with the so-called shake flask method at a controlled temperature. Alternatively, it can be determined by slowly heating the compound and recording the solubilization temperature after complete dissolution.

Row | Molecule | Solubility limit in ethyl lactate [%] | Solubility limit in glycerol
1 | Rebaudioside B [Reb B (95%)] | < 1 | about 16 % wt.
2 | C=C1C[C@@]23CC[C@H]4[C@@](C)(CCC[C@@]4(C)C(=O)O[C@@H]4O[C@H](CO)[C@@H](O)[C@H](O)[C@H]4O)[C@@H]2CC[C@]1(O[C@@H]1O[C@H](CO)[C@@H](O)[C@H](O[C@@H]2O[C@H](CO)[C@@H](O)[C@H](O)[C@H]2O)[C@H]1O[C@@H]1O[C@H](CO)[C@@H](O)[C@H](O)[C@H]1O)C3 [Reb A (99.5%), Rebaudioside A] | < 0.3 | about 2 % wt.
3 | C=C1C[C@@]23CC[C@H]4[C@@](C)(CCC[C@@]4(C)C(=O)O[C@@H]4O[C@H](CO)[C@@H](O)[C@H](O[C@@H]5O[C@H](CO)[C@@H](O)[C@H](O)[C@H]5O)[C@H]4O[C@@H]4O[C@H](CO)[C@@H](O)[C@H](O)[C@H]4O)[C@@H]2CC[C@]1(O[C@@H]1O[C@H](CO)[C@@H](O)[C@H](O[C@@H]2O[C@H](CO)[C@@H](O)[C@H](O)[C@H]2O)[C@H]1O[C@@H]1O[C@H](CO)[C@@H](O)[C@H](O)[C@H]1O)C3 [Reb M (95%), Rebaudioside M] | < 0.7 | about 9 % wt.
